# Results taken from ChEMBL document CHEMBL5143746, “SJPYT-195: A Designed Nuclear Receptor Degrader That Functions as a Molecular Glue Degrader of GSPT1” (ACS Med Chem Lett, 2022).
# Calls of active or inactive are those of the source. The rule behind the calls is not given here.
# How the values were obtained:
# [1] = target: Protein cereblon/DNA damage-binding protein 1 (Homo sapiens, UniProt Q96SW2); assay: Displacement of BODIPY FL thalidomide from 6His-tagged CRBN/DDB1 (unknown origin) expressed in baculovirus infected Sf9 insect cells incubated for 1 min under shaking condition followed by 60 mins incubation under dark condition by TR-FRET assay
# [2] = target: T1, Protein cereblon/Peptidyl-prolyl cis-trans isomerase FKBP1A/Nuclear receptor subfamily 1 group I member 2 (Homo sapiens, UniProt P62942+O75469+Q96SW2, F37V); assay: (§1) Molecular glue activity at HA-tagged CLR4-CRBN/2HA-tagged PXR fused HiBiT-tagged FKBP12 (F36V) mutant (unknown origin) expressed in HepG2 cells assessed as induction of PXR degradation measured after 24 hrs by Nano-Glo HiBiT assay; assay type: cell-based; conditions: hepg2, 24 h
# [3] = target: T2, Nuclear receptor subfamily 1 group I member 2 (Homo sapiens, UniProt O75469); assay: Induction of PXR degradation in PXR knock in human SNU-C4 cells at 10 uM measured after 2 to 48 hrs by Western blot analysis; assay type: cell-based; conditions: snu-c4, 10 µM, time 2-48 hrs
# T2 sequence (O75469 whole entry): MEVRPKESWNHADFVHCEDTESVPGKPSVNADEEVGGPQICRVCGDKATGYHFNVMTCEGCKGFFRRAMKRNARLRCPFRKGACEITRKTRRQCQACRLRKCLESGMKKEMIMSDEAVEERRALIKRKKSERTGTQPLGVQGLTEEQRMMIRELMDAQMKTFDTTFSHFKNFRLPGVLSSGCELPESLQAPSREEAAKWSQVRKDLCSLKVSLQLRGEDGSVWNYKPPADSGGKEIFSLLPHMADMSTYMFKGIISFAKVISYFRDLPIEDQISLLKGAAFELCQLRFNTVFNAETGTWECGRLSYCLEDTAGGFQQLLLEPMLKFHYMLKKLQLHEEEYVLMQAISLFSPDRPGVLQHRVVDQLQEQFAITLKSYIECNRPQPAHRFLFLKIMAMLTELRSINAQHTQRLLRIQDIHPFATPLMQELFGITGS
# SNU-C4 [4] = assay: Down regulation of PXR mRNA expression in PXR knock in human SNU-C4 cells at 10 uM measured after 2 to 48 hrs by RT-qPCR analysis; assay type: functional, cell-based; conditions: time 2-48 hrs
# [5] = target: Eukaryotic peptide chain release factor GTP-binding subunit ERF3A (Homo sapiens) (UniProt P15170); assay: Induction of GSPT1 degradation in PXR knock in human SNU-C4 cells at 0.001 to 10 uM measured after 24 hrs by Western blot analysis; assay type: cell-based; conditions: dose 0.001-10 µM
# SNU-C4 [6] = assay: […] of ZFP91 expression in PXR knock in human SNU-C4 cells at 5 uM measured after 12 hrs by TMT-MS analysis; assay type: functional, cell-based
# SNU-C4 [7] = assay: Up regulation of CYP1A1 expression in PXR knock in human SNU-C4 cells at 5 uM measured after 12 hrs by TMT-MS analysis; assay type: functional, cell-based
# SNU-C4 [8] = assay: Up regulation of BRIP1 expression in PXR knock in human SNU-C4 cells at 5 uM measured after 12 hrs by TMT-MS analysis; assay type: functional, cell-based
# SNU-C4 [9] = assay: […] of GSPT2 expression in PXR knock in human SNU-C4 cells at 5 uM measured after 12 hrs by TMT-MS analysis; assay type: functional, cell-based
# SNU-C4 [10] = assay: Cytotoxicity against PXR knock in human SNU-C4 cells measured after 72 hrs by celltiter-glo assay; assay type: functional
# SNU-C4 [11] = assay: […] of GSPT1 expression in PXR knock in human SNU-C4 cells at 5 uM measured after 12 hrs by TMT-MS analysis; assay type: functional, cell-based
# SNU-C4 [12] = assay: Down regulation of FOS expression in PXR knock in human SNU-C4 cells at 5 uM measured after 12 hrs by TMT-MS analysis; assay type: functional, cell-based
# [13] = target: T2, Nuclear receptor subfamily 1 group I member 2; assay: Induction of PXR degradation in PXR knock in human SNU-C4 cells at 5 uM measured after 12 hrs by Western blot analysis relative to control; assay type: cell-based; conditions: snu-c4, 12 h
# [14] = target: T2, Nuclear receptor subfamily 1 group I member 2; assay: Induction of PXR degradation in PXR knock in human SNU-C4 cells at 0.0001 to 1 uM measured after 24 hrs by Western blot analysis; assay type: cell-based; conditions: snu-c4, 24 h, dose 0.0001-1 µM
# [15] = target: T1, Protein cereblon/Peptidyl-prolyl cis-trans isomerase FKBP1A/Nuclear receptor subfamily 1 group I member 2; assay: as §1, with “degradation by measuring change in FKBP-PXR expression at 0.0001 uM” for “degradation”, “Western blot analysis relative to control” for “Nano-Glo HiBiT assay”; assay type: cell-based; conditions: hepg2, 24 h
# [16] = target: T1, Protein cereblon/Peptidyl-prolyl cis-trans isomerase FKBP1A/Nuclear receptor subfamily 1 group I member 2; assay: as §1, with “degradation by measuring change in FKBP-PXR expression at 0.001 uM” for “degradation”, “Western blot analysis relative to control” for “Nano-Glo HiBiT assay”; assay type: cell-based; conditions: hepg2, 24 h
# HepG2 [17] = assay: Binding affinity to 2HA-tagged PXR fused HiBiT-tagged FKBP12 (F36V) mutant (unknown origin) expressed in HepG2 cells assessed as change in FKBP-PXR expression at 0.001 uM measured after 24 hrs by Western blot analysis relative to control; assay type: cell-based; conditions: Homo sapiens
# [18] = target: T1, Protein cereblon/Peptidyl-prolyl cis-trans isomerase FKBP1A/Nuclear receptor subfamily 1 group I member 2; assay: as §1, with “degradation by measuring change in CRBN expression at 0.0001 uM” for “degradation”, “Western blot analysis relative to control” for “Nano-Glo HiBiT assay”; assay type: cell-based; conditions: hepg2, 24 h
# [19] = target: T1, Protein cereblon/Peptidyl-prolyl cis-trans isomerase FKBP1A/Nuclear receptor subfamily 1 group I member 2; assay: as §1, with “degradation by measuring change in CRBN expression at 0.01 uM” for “degradation”, “Western blot analysis relative to control” for “Nano-Glo HiBiT assay”; assay type: cell-based; conditions: hepg2, 24 h
# [20] = target: T1, Protein cereblon/Peptidyl-prolyl cis-trans isomerase FKBP1A/Nuclear receptor subfamily 1 group I member 2; assay: (§2) Molecular glue activity at HA-tagged […]/2HA-tagged PXR fused HiBiT-tagged FKBP12 (F36V) mutant (unknown origin) expressed in HepG2 cells assessed as induction of PXR degradation by measuring change in CRBN expression at 0.1 uM measured after 24 hrs by Western blot analysis relative to control; assay type: cell-based; conditions: hepg2, 24 h
# [21] = target: T1, Protein cereblon/Peptidyl-prolyl cis-trans isomerase FKBP1A/Nuclear receptor subfamily 1 group I member 2; assay: as §2, with “in FKBP-PXR” for “in CRBN”, “at 10” for “at 0.1”; assay type: cell-based; conditions: hepg2, 24 h
# [22] = target: T1, Protein cereblon/Peptidyl-prolyl cis-trans isomerase FKBP1A/Nuclear receptor subfamily 1 group I member 2; assay: as §2, with “in FKBP-PXR” for “in CRBN”, “at 1” for “at 0.1”; assay type: cell-based; conditions: hepg2, 24 h
# HepG2 [23] = assay: Binding affinity to 2HA-tagged PXR fused HiBiT-tagged FKBP12 (F36V) mutant (unknown origin) expressed in HepG2 cells assessed as change in FKBP-PXR expression at 10 uM measured after 24 hrs by Western blot analysis relative to control; assay type: cell-based; conditions: Homo sapiens
# HepG2 [24] = assay: Binding affinity to 2HA-tagged PXR fused HiBiT-tagged FKBP12 (F36V) mutant (unknown origin) expressed in HepG2 cells assessed as change in FKBP-PXR expression at 0.0001 uM measured after 24 hrs by Western blot analysis relative to control; assay type: cell-based; conditions: Homo sapiens
# [25] = target: T1, Protein cereblon/Peptidyl-prolyl cis-trans isomerase FKBP1A/Nuclear receptor subfamily 1 group I member 2; assay: Molecular glue activity at HA-tagged […]/2HA-tagged PXR fused HiBiT-tagged FKBP12 (F36V) mutant (unknown origin) expressed in HepG2 cells assessed as induction of PXR degradation by measuring change in CRBN expression at 1 uM measured after 24 hrs by Western blot analysis relative to control; assay type: cell-based; conditions: hepg2, 24 h
# [26] = target: T1, Protein cereblon/Peptidyl-prolyl cis-trans isomerase FKBP1A/Nuclear receptor subfamily 1 group I member 2; assay: as §2, with “0.001” for “0.1”; assay type: cell-based; conditions: hepg2, 24 h
# [27] = target: T1, Protein cereblon/Peptidyl-prolyl cis-trans isomerase FKBP1A/Nuclear receptor subfamily 1 group I member 2; assay: Molecular glue activity at HA-tagged […]/2HA-tagged PXR fused HiBiT-tagged FKBP12 (F36V) mutant (unknown origin) expressed in HepG2 cells assessed as induction of PXR degradation by measuring change in CRBN expression at 10 uM measured after 24 hrs by Western blot analysis relative to control; assay type: cell-based; conditions: hepg2, 24 h
# HepG2 [28] = assay: Binding affinity to 2HA-tagged PXR fused HiBiT-tagged FKBP12 (F36V) mutant (unknown origin) expressed in HepG2 cells assessed as change in FKBP-PXR expression at 0.1 uM measured after 24 hrs by Western blot analysis relative to control; assay type: cell-based; conditions: Homo sapiens
# [29] = target: T1, Protein cereblon/Peptidyl-prolyl cis-trans isomerase FKBP1A/Nuclear receptor subfamily 1 group I member 2; assay: as §2, with “in FKBP-PXR” for “in CRBN”, “at 0.01” for “at 0.1”; assay type: cell-based; conditions: hepg2, 24 h
# HepG2 [30] = assay: Binding affinity to 2HA-tagged PXR fused HiBiT-tagged FKBP12 (F36V) mutant (unknown origin) expressed in HepG2 cells assessed as change in FKBP-PXR expression at 0.01 uM measured after 24 hrs by Western blot analysis relative to control; assay type: cell-based; conditions: Homo sapiens
# [31] = target: T1, Protein cereblon/Peptidyl-prolyl cis-trans isomerase FKBP1A/Nuclear receptor subfamily 1 group I member 2; assay: as §2, with “in FKBP-PXR” for “in CRBN”; assay type: cell-based; conditions: hepg2, 24 h
# HepG2 [32] = assay: Binding affinity to 2HA-tagged PXR fused HiBiT-tagged FKBP12 (F36V) mutant (unknown origin) expressed in HepG2 cells assessed as change in FKBP-PXR expression at 1 uM measured after 24 hrs by Western blot analysis relative to control; assay type: cell-based; conditions: Homo sapiens
# T1 sequence (P62942 2-108 F37V limits assumed, stated change not applied, one chain of several): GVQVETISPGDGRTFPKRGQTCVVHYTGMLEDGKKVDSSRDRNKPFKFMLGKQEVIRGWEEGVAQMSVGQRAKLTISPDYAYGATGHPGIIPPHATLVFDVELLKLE
# T1 sequence (Q96SW2 whole entry, stated change not applied, one chain of several, the tested form may be a part): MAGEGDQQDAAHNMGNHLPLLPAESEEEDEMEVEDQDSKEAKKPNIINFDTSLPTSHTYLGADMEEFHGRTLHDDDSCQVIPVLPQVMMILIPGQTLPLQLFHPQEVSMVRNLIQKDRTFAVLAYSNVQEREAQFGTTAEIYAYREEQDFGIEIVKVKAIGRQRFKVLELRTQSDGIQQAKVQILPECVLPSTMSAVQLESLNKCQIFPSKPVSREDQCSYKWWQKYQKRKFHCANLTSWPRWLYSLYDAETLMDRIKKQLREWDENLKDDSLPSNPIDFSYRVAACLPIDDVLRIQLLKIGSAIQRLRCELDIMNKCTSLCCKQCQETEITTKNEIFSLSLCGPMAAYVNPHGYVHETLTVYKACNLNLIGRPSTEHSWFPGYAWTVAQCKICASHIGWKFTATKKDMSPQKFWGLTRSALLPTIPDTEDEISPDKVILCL
# Sequence of Protein cereblon/DNA damage-binding protein 1 (Q96SW2 whole entry, the tested form may be a part): as the sequence (Q96SW2 whole entry, stated change not applied, one chain of several, the tested form may be a part) above
# Sequence of Protein cereblon/DNA damage-binding protein 1 (Q16531 whole entry, further chain, the tested form may be a part): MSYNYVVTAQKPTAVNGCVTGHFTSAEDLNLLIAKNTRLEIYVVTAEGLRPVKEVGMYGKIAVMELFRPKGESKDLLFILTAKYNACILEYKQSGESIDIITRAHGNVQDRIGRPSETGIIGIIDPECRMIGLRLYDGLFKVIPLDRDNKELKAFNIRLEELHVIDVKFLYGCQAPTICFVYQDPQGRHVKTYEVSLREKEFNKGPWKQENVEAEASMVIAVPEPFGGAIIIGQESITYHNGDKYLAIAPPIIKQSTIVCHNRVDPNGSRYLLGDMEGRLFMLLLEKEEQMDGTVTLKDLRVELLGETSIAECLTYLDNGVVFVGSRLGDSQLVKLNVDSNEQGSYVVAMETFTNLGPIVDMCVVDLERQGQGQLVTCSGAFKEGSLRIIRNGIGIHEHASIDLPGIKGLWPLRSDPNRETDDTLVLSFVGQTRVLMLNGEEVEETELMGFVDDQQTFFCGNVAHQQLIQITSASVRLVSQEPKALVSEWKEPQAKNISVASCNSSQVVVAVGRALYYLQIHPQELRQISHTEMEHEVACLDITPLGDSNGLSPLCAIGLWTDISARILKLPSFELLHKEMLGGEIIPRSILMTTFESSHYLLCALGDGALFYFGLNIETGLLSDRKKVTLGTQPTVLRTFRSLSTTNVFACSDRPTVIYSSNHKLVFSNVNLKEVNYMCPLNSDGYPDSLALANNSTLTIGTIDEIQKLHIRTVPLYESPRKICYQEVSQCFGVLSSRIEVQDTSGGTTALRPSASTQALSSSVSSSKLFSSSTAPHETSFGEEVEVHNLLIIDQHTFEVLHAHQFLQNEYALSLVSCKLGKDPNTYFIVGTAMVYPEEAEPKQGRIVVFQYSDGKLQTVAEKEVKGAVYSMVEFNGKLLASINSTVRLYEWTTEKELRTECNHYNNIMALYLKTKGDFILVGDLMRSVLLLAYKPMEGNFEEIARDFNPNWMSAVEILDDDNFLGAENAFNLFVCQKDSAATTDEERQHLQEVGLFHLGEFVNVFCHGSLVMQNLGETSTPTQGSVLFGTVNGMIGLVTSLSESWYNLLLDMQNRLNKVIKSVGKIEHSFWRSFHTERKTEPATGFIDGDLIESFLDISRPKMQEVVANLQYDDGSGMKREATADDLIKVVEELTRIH
# Sequence of Eukaryotic peptide chain release factor GTP-binding subunit ERF3A (Homo sapiens) (P15170 whole entry): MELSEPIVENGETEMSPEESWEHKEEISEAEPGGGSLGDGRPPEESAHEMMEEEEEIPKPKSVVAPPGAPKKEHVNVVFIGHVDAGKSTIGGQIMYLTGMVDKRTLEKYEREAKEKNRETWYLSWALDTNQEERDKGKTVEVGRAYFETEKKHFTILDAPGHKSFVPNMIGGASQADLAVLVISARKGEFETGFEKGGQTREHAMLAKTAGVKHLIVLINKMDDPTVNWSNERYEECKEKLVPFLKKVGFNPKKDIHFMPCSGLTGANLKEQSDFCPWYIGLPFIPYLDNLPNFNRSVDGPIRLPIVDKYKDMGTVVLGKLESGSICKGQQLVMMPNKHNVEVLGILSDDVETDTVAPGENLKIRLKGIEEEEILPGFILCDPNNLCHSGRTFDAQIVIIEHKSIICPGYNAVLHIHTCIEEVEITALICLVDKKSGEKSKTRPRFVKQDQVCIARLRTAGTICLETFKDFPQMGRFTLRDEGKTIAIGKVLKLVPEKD
structure (smiles),measurement,setting,value
CC(=O)Nc1cc(Oc2cccc3c2C(=O)N(C2CCC(=O)NC2=O)C3=O)cc(C(C)(C)C)c1 (centres undefined),EC50,[1],11 nM
COc1ccc(OC)c(-n2nnc(C(=O)Nc3cc(NCCNc4cccc5c4C(=O)N(C4CCC(=O)NC4=O)C5=O)cc(C(C)(C)C)c3)c2C)c1 (centres undefined),EC50,[1],24 nM
COc1ccc(OC)c(-n2nnc(C(=O)Nc3cc(NC(=O)Nc4cccc5c4C(=O)N(C4CCC(=O)NC4=O)C5=O)cc(C(C)(C)C)c3)c2C)c1 (centres undefined),EC50,[1],410 nM
COc1ccc(OC)c(-n2nnc(C(=O)Nc3cc(OCC(=O)Nc4cccc5c4C(=O)N(C4CCC(=O)NC4=O)C5=O)cc(C(C)(C)C)c3)c2C)c1 (centres undefined),EC50,[1],> 333 nM
COc1ccc(OC)c(-n2nnc(C(=O)Nc3cc(NC(=O)CNc4cccc5c4C(=O)N(C4CCC(=O)NC4=O)C5=O)cc(C(C)(C)C)c3)c2C)c1 (centres undefined),EC50,[1],15 nM
COc1ccc(OC)c(-n2nnc(C(=O)Nc3cc(OC(=O)CNc4cccc5c4C(=O)N(C4CCC(=O)NC4=O)C5=O)cc(C(C)(C)C)c3)c2C)c1 (centres undefined),EC50,[1],17 nM
COc1ccc(OC)c(-n2nnc(C(=O)Nc3cc(Oc4cccc5c4C(=O)N(C4CCC(=O)NC4=O)C5=O)cc(C(C)(C)C)c3)c2C)c1 (centres undefined),Activity,[2]; DDE = dose-dependent effect,Dde
same,Activity,[3],Active
same,Activity,SNU-C4 [4],Active
same,Activity,[5],Active
same,Activity,SNU-C4 [6],Active
same,Activity,SNU-C4 [7],Active
same,Activity,SNU-C4 [8],Active
same,Activity,SNU-C4 [9],Active
same,CC50,SNU-C4 [10],3.3 nM
same,EC50,[1],31 nM
same,Activity,SNU-C4 [11],Active
same,Activity,SNU-C4 [12],Active
same,Activity,[13],50%
Cc1ccc(NC(=O)NCc2ccc3c(c2)CN(C2CCC(=O)NC2=O)C3=O)cc1Cl (centres undefined),CC50,SNU-C4 [10],440 nM
same,Activity,[14],Active
COc1ccc(OC)c(-n2nnc(C(=O)Nc3cc(OCCNc4cccc5c4C(=O)N(C4CCC(=O)NC4=O)C5=O)cc(C(C)(C)C)c3)c2C)c1 (centres undefined),EC50,[1],23 nM
CC(=O)Nc1cc(Nc2cccc3c2C(=O)N(C2CCC(=O)NC2=O)C3=O)cc(C(C)(C)C)c1 (centres undefined),EC50,[1],3.2 nM
CC[C@H](C(=O)N1CCCC[C@H]1C(=O)O[C@H](CCc1ccc(OC)c(OC)c1)c1ccccc1OCC(=O)NCCCCCCOc1cccc2c1C(=O)N(C1CCC(=O)NC1=O)C2=O)c1cc(OC)c(OC)c(OC)c1 (some centres undefined),fold change (FC),[15],0.8
same,Activity,[2],Active
same,fold change (FC),[16],0.7
same,fold change (FC),HepG2 [17],1.3
same,fold change (FC),[18],0.9
same,fold change (FC),[19],1.1
same,fold change (FC),[20],1.3
same,fold change (FC),[21],1.4
same,fold change (FC),[22],0.8
same,fold change (FC),HepG2 [23],1
same,fold change (FC),HepG2 [24],1.1
same,fold change (FC),[25],2.2
same,fold change (FC),[26],0.9
same,fold change (FC),[27],3.6
same,fold change (FC),HepG2 [28],1.1
same,fold change (FC),[29],0.5
same,fold change (FC),HepG2 [30],1.2
same,fold change (FC),[31],0.5
same,fold change (FC),HepG2 [32],0.9
COc1ccc(OC)c(-n2nnc(S(=O)(=O)c3ccc(C(C)(C)C)cc3)c2C)c1,EC50,[1],> 3000 nM
CC(C)(C)c1cc(N)cc(Oc2cccc3c2C(=O)N(C2CCC(=O)NC2=O)C3=O)c1 (centres undefined),EC50,[1],14 nM
